This is an account of results in patent US20260022098A1, “BULLEYACONITINE A DERIVATIVE WITH ANALGESIC ACTIVITY, AND PREPARATION METHOD AND APPLICATION THEREOF” (priority 2023, published 2026).

In data set [1] the test system is Kunming mice. The data set can be described thus: Analgesic activity by acetic acid-induced writhing method (writhing inhibition rate, ED50). The conditions noted are these: mice, subcutaneous; for ED50: Probit regression; for inhibition in vivo at 0.05 mg/kg / inhibition in vivo at 0.5 mg/kg: read-out: Analgesia rate (%) ± SEM. The data set is classed as in vivo. In a few lines: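 Kunming mice (22±2 g, 1:1 sex, 12 h fasted, 10/group) got compound s.c. (dissolved 1:1 molar with 0.1 mol/L HCl, diluted in saline); 0.7% acetic acid i.p. 15 min later, writhes counted over 15 min. Inhibition rate vs saline blank; ED50 by Probit regression over ≥5 doses.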

Data set [2] can be described thus: Acute toxicity / median lethal dose (LD50) determination, subcutaneous injection. Format: in vivo, mice. Also noted: key to Acute toxicity: if death occurred, (+) represented as positive; if no death occurred, (−) represented as negative. The conditions noted are these: both sexes, Kunming, mouse, in vivo, sc; mice, subcutaneous, survival within 24 h, Probit regression; >X = no death or toxic symptoms at X mg/kg. Put shortly:
(§1)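 Kunming mice (22±2 g, 1:1 male:female, fasted 12 h), 10 per group, given compound subcutaneously at 0.1 mL/10 g in saline after 1:1 molar dissolution in 0.1 mol/L HCl. At least 5 proportional dose groups set from a 20 mg/kg pilot; 24 h survival, LD50 by Probit regression.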

Data set [3] deals with Kunming mice. Described as above. The data set is classed as in vivo. Also noted: key to Acute toxicity: if death occurred, (+) represented as positive; if no death occurred, (−) represented as negative. The conditions noted are these: for Acute toxicity: mice administered 20 mg/kg subcutaneously, presence of death within 24 h. In a few lines: as §1
Data set [4] concerns Kunming mice. Kind of data set: Calculation of therapeutic index (TI = LD50/ED50). Format: in vivo. How it is done:
(3) Calculation of Therapeutic Index (TI)
The therapeutic index of each compound was calculated based on the median effective dose and the median lethal dose, which were specifically as follows: therapeutic index (TI)=median lethal dose (LD50)/median effective dose (ED50).

For the next data set, the system named is RAW 264.7 cells. The data set can be described thus: MTT assay, viability of RAW 264.7 cells. The following applies: compound diluted to 30 mol/L (so in the source), 12 h. The data set is classed as cell-based. The procedure: (§2) The effect of the compound to be tested on viability of RAW 264.7 cells at a concentration of […] was assessed through MTT assay (Methylthiazolyldiphenyl-tetrazolium bromide assay), and the inhibition on NO release in the inflammatory response of LPS-induced RAW 264.7 cells at 30 µM was determined through Griess method. Specific methods were described as follows.
An MTT solution (5 mg/mL) was prepared with a PBS buffer, filter-sterilized through a 0.22 μm filter membrane, and stored protected from light at low temperature. Each compound was dissolved in DMSO to prepare a 50 mmol/L stock solution, and stored from light at low (frozen) temperature. The stock solution was diluted to 30 mol/L with DMEM (Dulbecco's modified Eagle's medium) containing 10% FBS (fetal bovine serum). RAW264.7 cells beyond third passage were added to a culture medium and gently pipetted to detach, forming a cell suspension. 10 μL of the cell suspension was applied onto a hemocytometer slide for counting, and cells were seeded into 96-well plates at a density of 6×10^3 cells per well with 100 μL of the cell suspension per well. After incubated at 37° C. with 5% CO2 for 24 h, supernatant was removed. A zero-adjustment group (CO group) received 100 μL of medium per well, the blank group (CK group) received 100 μL of DMSO (1/1000 dilution) per well, and the experimental groups received 100 μL of the test samples per well. After 12 h, supernatant was removed, and […] of MTT solution was added into each well at 120 μL per well. After incubated in COz at a constant temperature for 4 h, supernatant was removed, and DMSO was added into each well by 150 μL per well. The mixture was shaken at 50 r/min for 10 min and subjected to an absorbance test at 492 nm. Relative cell viability (x) was calculated through a formula as follows: relative cell viability (%)=(ODTest−ODCO)/(ODCK−ODCO)×100%.

Data set [5] relates to LPS-induced RAW 264.7 cells. The data set can be described thus: Griess assay, inhibition of NO release in LPS-induced RAW 264.7 cells. Format: cell-based. The following applies: Griess method, compound at 30 M (so in the source), 22 h. The procedure:
as §2
RAW264.7 cells beyond third passage were added to a culture medium and gently pipetted to detach, forming a cell suspension. 10 μL of the cell suspension was applied onto a hemocytometer slide for counting, and cells were seeded into a 96-well plate at a density of 3×10^4 cells per well with 100 μL of the cell suspension per well. After incubated at 37° C. with […] for 24 h, supernatant was removed. The blank group received 100 μL of DMSO (1/1000 dilution) per well, a LPS (lipopolysaccharide) group received 100 μL of DMSO (1/1000 dilution) per well, and the experimental groups received 100 μL of the test samples per well. The LPS group received 1 μg/ml of LPS by […] per well, and the experimental groups received […] of LPS by 3 μg per well. After 22 h, 50 μL of supernatant was transferred into another 96-well plate, added with Griess Reagent I in a NO assay kit by 50 μL per well, then added with Griess Reagent II by 50 μL per well, and subjected to an absorbance test at 562 nm. Nitric oxide (NO) concentration was calculated based on a standard curve, which was specifically as follows: NO inhibition rate (%)=(ODLPS−ODTest)/(ODLPS−ODBlank)×100).

Data set [6] has as its system Kunming mice. The conditions noted are these: reported value used as preliminary screening concentration; cited from earlier work.
[7] abbreviates: Mus musculus, sc, acetic acid-induced writhing, read-out: ED50.
Where [8] appears, read: Mus musculus, sc, dosing concentration 0.05 mg/kg, acetic acid-induced writhing.
[9] abbreviates: Mus musculus, sc, dosing concentration 0.5 mg/kg, acetic acid-induced writhing.

Read-outs that look alike come from different tables or passages of the source.

As for `CCO[C@]12C[C@H](OC)[C@@]3(OC(=O)c4ccccc4F)CC(C1[C@H]3OC(=O)c1ccccc1F)[C@]13C4[C@@H](OC)C2[C@H]1N(CC)C[C@]4(COC)CC[C@@H]3OC` (stereo partly shown) [Compound 69], the median effective dose (ED50) with Kunming mice [1] (setting [7]) stood at 0.106 mg/kg. Moreover, the inhibition in vivo at 0.05 mg/kg in the data set with Kunming mice [1] (setting [8]) was determined as 40.3 ± 0.7%. The inhibition in vivo at 0.5 mg/kg in the data set with Kunming mice [1] (setting [9]) came to 60.6 ± 1.9%. The LD50 in data set [2] was greater than 100 mg/kg. For the same molecule, in the data set on Kunming mice [3], the Acute toxicity result is recorded as “−”. The TI in the data set on Kunming mice [4] is reported as greater than 943.4. The same molecule had an RAW cell viability in the data set with RAW 264.7 cells of 95.11 ± 5.66 ns %. In addition, the “Inflammatory NO inhibition rate” value in data set [5] was 40 ± 3.46 %.

As to `CCO[C@]12C[C@H](OC)[C@@]3(OC(=O)c4ccc(Cl)cc4)CC(C1[C@H]3OC(=O)c1ccc(OC)cc1)[C@]13C4[C@@H](OC)C2[C@H]1N(CC)C[C@]4(COC)CC[C@@H]3OC` (stereo partly shown) [Compound 83], the ED50 in the data set on Kunming mice [1] (setting [7]) came out at 0.146 mg/kg. Besides, the inhibition in vivo at 0.05 mg/kg in the data set on Kunming mice [1] (setting [8]) was 47 ± 0.9%. The inhibition in vivo at 0.5 mg/kg in the data set on Kunming mice [1] (setting [9]) was 70.8 ± 1.2%. This molecule also returned an LD50 in data set [2] of 76.6 mg/kg. Further, the Acute toxicity entry in the data set with Kunming mice [3] is listed as “−”. Further, in the data set on Kunming mice [4], the TI is listed as 524.9. Further, the RAW cell viability in the data set on RAW 264.7 cells is 85.21 ± 7.83 ^ %. The “Inflammatory NO inhibition rate” value in data set [5] is 50 ± 4.52 %.

In turn, Bulleyaconitine A [reference compound] registered an ED50 in the data set with Kunming mice [1] (acetic acid-induced writhing) of 0.048 mg/kg. Also, the “Analgesia rate (%) ± SEM” value in the data set on Kunming mice [1] (dosing concentration 0.05 mg/kg, acetic acid-induced writhing) came out at 54.80 ± 1.8 %. The “Analgesia rate: unable to test owing to significant toxicity or death in mice” value in the data set on Kunming mice [1] (dosing concentration 0.5 mg/kg) was “−^a”. In addition, in the data set on Kunming mice [3], the Acute toxicity result is “+”. Also, the LD50 in the data set on Kunming mice [3] (mice, subcutaneous, survival within 24 h, Probit regression, >X = no death or toxic symptoms at X mg/kg) is given as 0.92 mg/kg. In addition, in the data set on Kunming mice [4], the TI is recorded as 19.2. Besides, in the data set with RAW 264.7 cells, the RAW cell viability is 85.80 ± 7.31 ^ %. Moreover, the “Inflammatory NO inhibition rate” value in data set [5] was found to be 13 ± 6.84 %. The “reported median effective dose (ED50)” value in the data set on Kunming mice [6] is recorded as 0.05 mg/kg.
